Data: ChEMBL document CHEMBL5579805, “Synthesis, antibacterial activity, and 3D-QASR studies of matrine-indole derivatives as potential antibiotics” (2024)
Values after ≈ are worked out from the molar mass of the structure shown.

Tests used:
Type in all cases: functional
[1] = test system: Staphylococcus aureus; assay: Antibacterial activity against Staphylococcus aureus by two-fold dilution method; details: for MIC: Staphylococcus aureus
[2] = test system: Cutibacterium acnes; assay: Antibacterial activity against Propionibacterium acnes by two-fold dilution method
[3] = test system: Pseudomonas aeruginosa; assay: Antibacterial activity against Pseudomonas aeruginosa by two-fold dilution method
[4] = test system: Escherichia coli; assay: Antibacterial activity against Escherichia coli by two-fold dilution method
[5] = test system: Candida albicans; assay: […] activity against Candida albicans by two-fold dilution method; details: for MIC: Candida albicans

Row | SMILES | -logMIC [1] | MIC [1] [µg/mL] | MIC [2] [µg/mL] | MIC [3] [µg/mL] | MIC [4] [µg/mL] | -logMIC [5] | MIC [5] [µg/mL]
1 | COC(=O)CCC[C@@H]1[C@H]2CCCN3CCC[C@@H](CN1C(=O)c1cc4ccc(Cl)cc4n1Cc1ccc(Br)cc1)[C@@H]23 | 0.06 | 1.15 (≈ 1.83 µM) | 0.121 (≈ 0.193 µM) | 0.467 (≈ 0.745 µM) | 0.762 (≈ 1.22 µM) | -1.14 | 13.7 (≈ 21.9 µM)
2 | COC(=O)CCC[C@@H]1[C@H]2CCCN3CCC[C@@H](CN1C(=O)c1cc4ccc(Cl)cc4n1Cc1ccc(F)c(F)c1)[C@@H]23 | 0.37 | 0.427 (≈ 0.731 µM) | 0.12 (≈ 0.205 µM) | 0.5 (≈ 0.856 µM) | 0.483 (≈ 0.827 µM) | -0.98 | 9.55 (≈ 16.3 µM)
3 | COC(=O)CCC[C@@H]1[C@H]2CCCN3CCC[C@@H](CN1C(=O)c1cc4ccc(Cl)cc4n1Cc1ccccc1[N+](=O)[O-])[C@@H]23 | 0.876 | 0.133 (≈ 0.224 µM) | 2.86 (≈ 4.82 µM) | 0.852 (≈ 1.44 µM) | 0.694 (≈ 1.17 µM) | -1.05 | 11.1 (≈ 18.8 µM)
4 | COC(=O)CCC[C@@H]1[C@H]2CCCN3CCC[C@@H](CN1C(=O)c1cc4ccccc4[nH]1)[C@@H]23 | -0.991 | 9.79 (≈ 23.1 µM) | 1.23 (≈ 2.91 µM) | 1.08 (≈ 2.56 µM) | 2.97 (≈ 7.01 µM) | -1.16 | 14.3 (≈ 33.7 µM)
5 | COC(=O)CCC[C@@H]1[C@H]2CCCN3CCC[C@@H](CN1C(=O)c1cc4ccc(Cl)cc4n1Cc1cccc(OCc4ccccc4)c1)[C@@H]23 | 0.932 | 0.117 (≈ 0.179 µM) | 0.093 (≈ 0.142 µM) | 0.975 (≈ 1.49 µM) | 0.894 (≈ 1.37 µM) | -0.991 | 9.8 (≈ 15 µM)
6 | COC(=O)CCC[C@@H]1[C@H]2CCCN3CCC[C@@H](CN1C(=O)c1cc4ccc(Cl)cc4n1Cc1ccc(F)cc1)[C@@H]23 | 0.035 | 0.923 (≈ 1.63 µM) | 0.199 (≈ 0.352 µM) | 0.806 (≈ 1.42 µM) | 0.618 (≈ 1.09 µM) | -0.77 | 5.89 (≈ 10.4 µM)
7 | COC(=O)CCC[C@@H]1[C@H]2CCCN3CCC[C@@H](CN1C(=O)c1cc4ccc(Cl)cc4n1Cc1cccc(C(F)(F)F)c1)[C@@H]23 | 0.866 | 0.136 (≈ 0.221 µM) | 0.058 (≈ 0.0941 µM) | 0.234 (≈ 0.38 µM) | 0.559 (≈ 0.907 µM) | -0.655 | 4.52 (≈ 7.33 µM)
8 | COC(=O)CCC[C@@H]1[C@H]2CCCN3CCC[C@@H](CN1C(=O)c1cc4ccc(Cl)cc4n1Cc1ccc(C(C)(C)C)cc1)[C@@H]23 | 1.071 | 0.085 (≈ 0.141 µM) | 1.33 (≈ 2.19 µM) | 0.654 (≈ 1.08 µM) | 1.22 (≈ 2.02 µM) | -1.26 | 18.1 (≈ 29.9 µM)
9 | COC(=O)CCC[C@@H]1[C@H]2CCCN3CCC[C@@H](CN1C(=O)c1cc4ccc(Cl)cc4n1Cc1ccc(-c4ccccc4)cc1)[C@@H]23 | 1.276 | 0.053 (≈ 0.0849 µM) | 0.373 (≈ 0.598 µM) | 0.55 (≈ 0.881 µM) | 1.16 (≈ 1.86 µM) | -1.37 | 23.2 (≈ 37.2 µM)
10 | COC(=O)CCC[C@@H]1[C@H]2CCCN3CCC[C@@H](CN1C(=O)c1cc4ccc(Cl)cc4n1Cc1ccc(F)cc1Br)[C@@H]23 | 0.458 | 0.348 (≈ 0.54 µM) | 0.351 (≈ 0.544 µM) | 0.445 (≈ 0.69 µM) | 1.04 (≈ 1.62 µM) | -0.942 | 8.74 (≈ 13.6 µM)
11 | COC(=O)CCC[C@@H]1[C@H]2CCCN3CCC[C@@H](CN1C(=O)c1cc4ccc(Cl)cc4n1Cc1ccccc1C)[C@@H]23 | 1.201 | 0.063 (≈ 0.112 µM) | 0.271 (≈ 0.482 µM) | 0.72 (≈ 1.28 µM) | 1.1 (≈ 1.97 µM) | -1.29 | 19.6 (≈ 34.8 µM)
12 | COC(=O)CCC[C@@H]1[C@H]2CCCN3CCC[C@@H](CN1C(=O)c1cc4ccc(Cl)cc4n1Cc1ccc([N+](=O)[O-])cc1)[C@@H]23 | 0.745 | 0.18 (≈ 0.303 µM) | 0.053 (≈ 0.0894 µM) | 0.28 (≈ 0.472 µM) | 0.523 (≈ 0.882 µM) | -0.846 | 7.01 (≈ 11.8 µM)
13 | COC(=O)CCC[C@@H]1[C@H]2CCCN3CCC[C@@H](CN1C(=O)c1cc4ccc(Cl)cc4n1Cc1cc(C#N)ccc1F)[C@@H]23 | 0.587 | 3.86 (≈ 6.54 µM) | 0.2 (≈ 0.338 µM) | 0.658 (≈ 1.11 µM) | 0.644 (≈ 1.09 µM) | -1.02 | 10.6 (≈ 17.9 µM)
14 | COC(=O)CCC[C@@H]1[C@H]2CCCN3CCC[C@@H](CN1C(=O)c1cc4ccc(Cl)cc4n1Cc1ccc(OC)cc1)[C@@H]23 | 0.451 | 0.354 (≈ 0.612 µM) | 0.404 (≈ 0.699 µM) | 0.627 (≈ 1.08 µM) | 0.775 (≈ 1.34 µM) | -0.905 | 8.04 (≈ 13.9 µM)
15 | COC(=O)CCC[C@@H]1[C@H]2CCCN3CCC[C@@H](CN1C(=O)c1cc4ccc(Cl)cc4n1Cc1ccc4ccccc4c1)[C@@H]23 | 1.187 | 0.065 (≈ 0.109 µM) | 0.175 (≈ 0.293 µM) | 0.42 (≈ 0.702 µM) | 0.892 (≈ 1.49 µM) | -1.09 | 12.2 (≈ 20.4 µM)
16 | COC(=O)CCC[C@@H]1[C@H]2CCCN3CCC[C@@H](CN1C(=O)c1cc4ccc(Cl)cc4[nH]1)[C@@H]23 | 0.207 | 1.61 (≈ 3.52 µM) | 0.636 (≈ 1.39 µM) | 0.661 (≈ 1.44 µM) | 2.55 (≈ 5.57 µM) | -0.819 | 6.59 (≈ 14.4 µM)
